Reference: article PMC10914731, “Homo-BacPROTAC-induced degradation of ClpC1 as a strategy against drug-resistant mycobacteria” (Nature Communications, 2024)
Several values for one entry are separate records, joined by “and”; a condition that tells them apart may be missing. Equal entries are not always repeated. Where two headings read alike, the source gives them in different places. *1 amine or outer side, *2 acyl side, *3 side chain or, on linkers, in order; H or OH if unused. Where a SMILES comes first, the peptide text is derived from it. Bridges are numbered along the chain shown (N, C = ends). Roman numbers before positions name the chains, in order. [ ]: non-standard residue; d: D form. X6 = O=C([C@@H](N[*:1])[C@H](OCC=[*:3])c1ccccc1)[*:2]; NMeLeu(5-OH,4R) = CN[C@@H](C[C@@H](C)CO)C(=O)O; Trp(1-Me) = Cn1cc(C[C@H](N)C(=O)O)c2ccccc21; NMeL = CN[C@@H](CC(C)C)C(=O)O

Key:
[1] = biological target: His6-tagged ClpC1-NTD substrate, M. smegmatis ClpC1P1P2 (UniProt A0R574+P9WPC9); assay: biochemical; format: biochemical; settings: Msm; Measurement 1-6; read-out: 1-Dmax, single measurements
[2] = biological target: ClpC1 NTD protein (M. tuberculosis) (Mycobacterium tuberculosis, UniProt P9WPC9); assay: biochemical; format: binding
[3] = format: in vitro ADME, Rat
Method in brief: (§1)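 Metabolic depletion in liver microsomes (0.5 mg/ml, 1 mM NADPH, 37 °C) starting from 1 µmol/l test compound, sampled at multiple times with acetonitrile quench. LC-MS/MS quantitation; half-life converted to %Qh.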

[4] = Microsomal stability, human; format: in vitro ADME
Method in brief: as §1

[5] = result in words
[6] = format: in vitro ADME, Mice
Method in brief: as §1

in vitro = settings: human
Method in brief: (§2)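 Values are bidirectional Caco-2 apparent permeabilities, P(A−B) and P(B−A), given in 10^-6 cm s-1. The efflux ratio divides P(B−A) by P(A−B), and intrinsic permeability averages the two directions.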

Caco-2 monolayers = assay: in vitro; settings: mean value of P(A−B) and P(B−A)
Method in brief: as §2

[7] = format: in vitro ADME, Rat; remark: listed apart in the source
[8] = Hepatocyte stability, mice; format: in vitro ADME
Method in brief: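 1 µM cpd (DMSO <0.05% final), cryopreserved hepatocytes ~1e6 cells/mL, 50% serum, pH 7.4, 37 °C/5–10% CO2; up to 6 h, 6 timepoints; ACN quench, HPLC-MS/MS; t1/2 → CL via well-stirred model, % Qh.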

[9] = biological target: ClpC1-NTD substrate, M. tuberculosis ClpC1P1P2 (Mycobacterium tuberculosis, UniProt P9WPC9); assay: biochemical; format: biochemical; settings: Mtb
ClpC1-NTD substrate, M. tuberculosis ClpC1P1P2, sequence (P9WPC5 whole entry): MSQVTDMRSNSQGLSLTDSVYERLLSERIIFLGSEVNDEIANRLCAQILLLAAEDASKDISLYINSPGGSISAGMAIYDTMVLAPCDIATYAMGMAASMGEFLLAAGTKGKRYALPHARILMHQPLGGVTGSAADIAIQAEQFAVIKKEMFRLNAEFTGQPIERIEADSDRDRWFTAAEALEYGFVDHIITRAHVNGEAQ
ClpC1-NTD substrate, M. tuberculosis ClpC1P1P2, sequence (P9WPC9 whole entry): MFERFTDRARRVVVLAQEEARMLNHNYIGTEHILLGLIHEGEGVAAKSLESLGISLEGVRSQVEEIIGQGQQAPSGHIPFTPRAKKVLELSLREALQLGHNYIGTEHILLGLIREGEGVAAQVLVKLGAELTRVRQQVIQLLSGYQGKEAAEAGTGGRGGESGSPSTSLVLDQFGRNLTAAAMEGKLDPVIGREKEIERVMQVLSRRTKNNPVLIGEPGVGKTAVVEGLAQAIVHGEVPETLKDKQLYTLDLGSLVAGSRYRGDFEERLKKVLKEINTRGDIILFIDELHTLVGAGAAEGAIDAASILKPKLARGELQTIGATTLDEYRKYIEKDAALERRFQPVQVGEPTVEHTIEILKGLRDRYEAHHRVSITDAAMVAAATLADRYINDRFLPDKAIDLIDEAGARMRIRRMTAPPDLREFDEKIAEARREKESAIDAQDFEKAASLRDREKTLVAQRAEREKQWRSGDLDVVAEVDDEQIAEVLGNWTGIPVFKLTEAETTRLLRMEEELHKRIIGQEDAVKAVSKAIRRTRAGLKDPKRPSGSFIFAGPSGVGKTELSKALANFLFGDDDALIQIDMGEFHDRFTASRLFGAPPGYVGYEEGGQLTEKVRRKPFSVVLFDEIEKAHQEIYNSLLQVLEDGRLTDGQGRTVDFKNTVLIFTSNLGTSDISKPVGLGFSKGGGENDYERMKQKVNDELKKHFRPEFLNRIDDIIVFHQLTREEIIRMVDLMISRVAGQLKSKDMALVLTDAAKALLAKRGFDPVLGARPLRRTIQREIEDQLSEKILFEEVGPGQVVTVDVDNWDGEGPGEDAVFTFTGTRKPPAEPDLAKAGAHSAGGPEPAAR
ClpC1-NTD substrate, M. tuberculosis ClpC1P1P2, sequence (P9WPC3 whole entry, further chain): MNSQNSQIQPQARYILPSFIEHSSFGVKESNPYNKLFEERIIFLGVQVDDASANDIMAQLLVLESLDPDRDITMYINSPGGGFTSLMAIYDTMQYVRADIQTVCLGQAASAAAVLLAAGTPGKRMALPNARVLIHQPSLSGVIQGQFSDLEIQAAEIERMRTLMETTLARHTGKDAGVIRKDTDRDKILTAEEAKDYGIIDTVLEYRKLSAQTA

ClpC1 NTD protein (M. tuberculosis), sequence (P9WPC9 1-156, looked up, natural form): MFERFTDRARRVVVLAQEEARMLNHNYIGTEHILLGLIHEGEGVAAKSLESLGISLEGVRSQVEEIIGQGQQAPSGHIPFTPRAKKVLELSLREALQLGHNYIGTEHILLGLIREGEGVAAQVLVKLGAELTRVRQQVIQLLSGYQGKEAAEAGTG
His6-tagged ClpC1-NTD substrate, M. smegmatis ClpC1P1P2, sequence (P9WPC9 1-156, looked up, natural form): as above
His6-tagged ClpC1-NTD substrate, M. smegmatis ClpC1P1P2, sequence (A0R574 whole entry): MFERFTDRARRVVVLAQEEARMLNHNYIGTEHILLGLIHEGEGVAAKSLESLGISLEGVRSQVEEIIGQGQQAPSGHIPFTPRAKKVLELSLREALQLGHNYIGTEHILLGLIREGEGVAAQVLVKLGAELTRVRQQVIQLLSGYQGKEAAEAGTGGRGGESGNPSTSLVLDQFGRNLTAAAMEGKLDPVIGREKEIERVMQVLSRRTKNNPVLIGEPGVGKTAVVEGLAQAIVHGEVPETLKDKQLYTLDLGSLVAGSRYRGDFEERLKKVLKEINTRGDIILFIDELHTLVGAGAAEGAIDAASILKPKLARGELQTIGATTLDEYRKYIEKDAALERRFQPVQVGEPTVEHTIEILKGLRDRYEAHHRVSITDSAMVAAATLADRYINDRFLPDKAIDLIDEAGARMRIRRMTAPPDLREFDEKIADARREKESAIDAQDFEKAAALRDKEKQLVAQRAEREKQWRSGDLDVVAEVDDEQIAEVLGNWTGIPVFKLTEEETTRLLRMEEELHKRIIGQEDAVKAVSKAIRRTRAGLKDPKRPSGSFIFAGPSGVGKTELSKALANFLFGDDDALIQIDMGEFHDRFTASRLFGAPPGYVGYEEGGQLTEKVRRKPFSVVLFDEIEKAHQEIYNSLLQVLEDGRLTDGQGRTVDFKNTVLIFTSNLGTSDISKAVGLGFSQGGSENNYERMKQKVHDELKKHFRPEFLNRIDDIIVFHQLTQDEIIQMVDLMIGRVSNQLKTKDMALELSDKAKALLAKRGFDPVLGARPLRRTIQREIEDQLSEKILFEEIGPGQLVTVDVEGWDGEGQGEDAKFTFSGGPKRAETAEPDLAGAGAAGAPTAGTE

In the case of `CC(C)C[C@H]1C(=O)N[C@@H](C(C)C)C(=O)N[C@@H](Cc2cn(C)c3ccccc23)C(=O)N(C)[C@@H](C[C@@H](C)CO)C(=O)N[C@@H](C)C(=O)N[C@@H]([C@H](OC/C=C/CO[C@H](c2ccccc2)[C@@H]2NC(=O)[C@H](C)NC(=O)[C@H](C[C@@H](C)CO)N(C)C(=O)[C@H](Cc3cn(C)c4ccccc34)NC(=O)[C@H](C(C)C)NC(=O)[C@H](CC(C)C)N(C)C(=O)[C@H](C(C)C)NC2=O)c2ccccc2)C(=O)N[C@@H](C(C)C)C(=O)N1C` [Compound 17] (I: cyclo(A[X6]V[NMeL]V[Trp(1-Me)][NMeLeu(5-OH,4R)]) / II: cyclo(A[X6]V[NMeL]V[Trp(1-Me)][NMeLeu(5-OH,4R)]); staple (E) I:2-II:2), the 1-Dmax (percent substrate remaining at maximal degradation) [1] is reported as 30.2%, the Kd ([2]; SPR (Supplementary Table 1), read-out: KD ClpC1-NTD Mean ± SD) is reported as 23 ± 5 nM and the “koff ClpC1-NTD” value ([2]; SPR, single independent measurements) is reported as 0.004 s⁻¹. For the same molecule, the Kd ([2]; SPR, single independent measurements, read-out: KD ClpC1-NTD) was 26.7 nM and 19 nM, the koff ([2]; SPR, single independent measurements, read-out: koff ClpC1-NTD) was 0.005 s⁻¹ and the “Microsomal Stability Rat QH” value ([3]; Rat) was less than 23.100%. For the same molecule, the “Microsomal Stability Rat” value ([3]; clearance in microsomes) was less than 23 %Qh, the “Microsomal Stability Human QH” value ([4]; Human) was less than 24.400% and the “Microsomal Stability Human” value ([4]; clearance in microsomes) was less than 24 %Qh. For the same molecule, the stability upon storage [5] was “compound decomposition upon storage”, the “Microsomal Stability Mouse QH” value ([6]; Mouse) was less than 24.200% and the “Microsomal Stability Mice” value ([6]; clearance in microsomes) was less than 24 %Qh. For the same molecule, the Papp A→B (in vitro; Caco-2, CACO permeability PEAB, apical to basolateral) was less than 2.5 ×10⁻⁶ cm/s, the Papp B→A (in vitro; Caco-2, Caco-2 permeability P (B-A), basolateral to apical) was 0.9 ×10⁻⁶ cm/s and the “Caco-2 Int. Perm” value (Caco-2 monolayers) was 1.7 10-6 cm s-1. The “Hepatocyte Stability Rat QH” value ([7]; Rat) was 12.036%, the “Hepatocyte Rat” value ([7]; clearance in hepatocytes) was 12 %Qh and the “Hepatocyte Stability Mouse QH” value ([8]; Mouse) was 20.539%. The “Hepatocyte Mice” value ([8]; clearance in hepatocytes) was 21 %Qh, the DC50 ([9]; Measurement 1-4, read-out: DC50, single measurements) was greater than 100000 nM and the DC50 ([9]; mean of the measurements, read-out: DC50, Mean) was greater than 100000 nM.
